In patent US20240254547A1, “HIGHLY ACCURATE […]” (KAO CORPORATION, priority 2018, published 2024):

Test system: Genomic DNA from TA100 strain of Salmonella typhimurium (S. typhimurium) LT-2
Test: Genomic mutation analysis of mutagen-exposed TA100 strain by sequencing with consensus read sequences considering complementary strands
Type: cell-based
Conditions: ENU group
Description: Exposure of cells to ENU was performed in accordance with the pre-incubation method of the Ames test (K. Mortelmans et al. Mutat. Res.—Fundam. Mol. Mech. Mutagen. 455:29-60, 2000). TA100 strain was seeded in 2 mL of Nutrient Broth No. 2 (produced by Oxoid Limited), and subjected to shaking culture at 37° C. and 180 rpm for 4 hours to afford pre-culture solution with an O.D.660 value of 1.0 or higher. ENU (produced by Sigma-Aldrich Co. LLC.) was diluted with dimethylsulfoxide (DMSO; produced by Wako Pure Chemical Industries, Ltd.). Into test tubes, 100 μL of the ENU solution, 500 μL of 0.1 M phosphate buffer, and 100 μL of the pre-culture solution were added (amount of ENU: 62.5, 125, 250, 500, and 1,000 μg/tube), and the resultants were subjected to shaking culture at 100 rpm in a water bath at 37° C. for 20 minutes (ENU group). For a control group, 100 μL of solvent (DMSO) was added instead of the ENU solution. After shaking culture for 20 minutes, the test tubes each containing a culture solution were taken out of the water bath, and 50 μL of each culture solution was added to 2 mL of Nutrient Broth solution aliquoted in advance, and the resultant was further cultured in an incubator at 37° C. and 180 rpm for 14 hours, from which the bacterial suspensions were then collected and centrifuged at 7,500 rpm for 5 minutes, and the supernatants were removed to collect the bacterial cells.
From the bacterial cells obtained in 1) (control group and ENU group), total DNA was collected by using a DNeasy Blood & Tissue Kit (produced by QIAGEN) in accordance with the recommended protocol. The double-stranded DNA concentration of each DNA sample obtained was measured by using a Qubit3.0 Fluorometer (produced by Thermo Fisher Scientific) with a Qubit™ dsDNA BR Assay Kit attached thereto.
From each DNA sample (control group and ENU group) after being subjected to concentration measurement in 2), a plurality of samples each of which was to give 100 ng of DNA were prepared, and each sample was fragmented into pieces having a length of approximately 350 bp on average by using a DNA Shearing System ME220 (produced by Covaris Inc.) in accordance with the recommended protocol. The fragmented DNA obtained was subjected to library preparation by using a TruSeq Nano DNA Library Prep Kit (produced by Illumina, Inc., hereinafter abbreviated as TruSeq) in accordance with the recommended protocol.
In library preparation, the DNA fragments obtained were each labeled with adapter sequences each including a label sequence at a terminal, as described in Example 1. The resultant was subjected to PCR under different conditions listed in Table 1 to prepare libraries for sequencing, thus preparing labeled libraries for sequencing with different conditions. Adapter sequences attached to the TruSeq from Illumina, Inc. were used. […] Thus, one of two adapters was bound to each fragment in each library. […] Each of the resulting ligation reaction solutions was purified in accordance with the recommended protocol, and then subjected to concentration measurement for ligation products by using a High Sensitivity D5000 Kit in an Agilent 4200 TapeStation (produced by Agilent Technologies). […] The mixed solution obtained was subjected to purification through PCR in accordance with the recommended protocol. To adjust difference in amount of input DNA in PCR, each sample was amplified through PCR cycles the number of which is shown in Table 1 to adjust the amount of DNA in the library.
Each of the libraries prepared in 3) was subjected to sequencing by using a HiSeq 2500 (produced by Illumina, Inc.), where the read length was set to 2*125 bp for Library Nos. 1 to 8 shown in Table 1, and to 2*100 bp for Library Nos. 9 to 14. Sequencing data of approximately 10 Gbp were acquired on average per library.
Raw read sequences acquired through sequencing were edited and subjected to mutation analysis in accordance with the analysis flow illustrated above in Schematic Diagram 4. […]

CCN(N=O)C(N)=O [ENU, ethylnitrosourea]
GC to AT mutation frequency (10 Gbp sequencing data, Library No. 1, PCR input DNA 20000 amol): 10.48 /10^5 bp
GC to AT mutation frequency (10 Gbp sequencing data, Library No. 4, PCR input DNA 2500 amol): 37.70 /10^5 bp
GC to AT mutation frequency (10 Gbp sequencing data, Library No. 5, PCR input DNA 1250 amol): 46.50 /10^5 bp
GC to AT mutation frequency (10 Gbp sequencing data, Library No. 6, PCR input DNA 625 amol): 55.30 /10^5 bp
GC to AT mutation frequency (10 Gbp sequencing data, Library No. 7, PCR input DNA 313 amol): 56.57 /10^5 bp
GC to AT mutation frequency (10 Gbp sequencing data, Library No. 8, PCR input DNA 156 amol): 60.42 /10^5 bp
GC to AT mutation frequency (10 Gbp sequencing data, Library No. 9, PCR input DNA 156 amol): 61.01 /10^5 bp
GC to AT mutation frequency (10 Gbp sequencing data, Library No. 10, PCR input DNA 78 amol): 63.62 /10^5 bp
GC to AT mutation frequency (10 Gbp sequencing data, Library No. 11, PCR input DNA 39 amol): 63.38 /10^5 bp
GC to AT mutation frequency (10 Gbp sequencing data, Library No. 12, PCR input DNA 20 amol): 63.89 /10^5 bp
GC to AT mutation frequency (10 Gbp sequencing data, Library No. 13, PCR input DNA 10 amol): 63.35 /10^5 bp
GC to AT mutation frequency (10 Gbp sequencing data, Library No. 14, PCR input DNA 5 amol): 60.05 /10^5 bp
Frequency of GC→AT mutation compared with the other mutation patterns (10 Gbp sequencing data, each library): highest
Relative mutation frequency to 20 amol (GC to AT) (Library No. 1, PCR input DNA 20000 amol): 16.41
Relative mutation frequency to 20 amol (GC to AT) (Library No. 4, PCR input DNA 2500 amol): 59.01
Relative mutation frequency to 20 amol (GC to AT) (Library No. 5, PCR input DNA 1250 amol): 72.79
Relative mutation frequency to 20 amol (GC to AT) (Library No. 6, PCR input DNA 625 amol): 86.56
Relative mutation frequency to 20 amol (GC to AT) (Library No. 7, PCR input DNA 313 amol): 88.55
Relative mutation frequency to 20 amol (GC to AT) (Library No. 8, PCR input DNA 156 amol): 94.57
Relative mutation frequency to 20 amol (GC to AT) (Library No. 9, PCR input DNA 156 amol): 95.50
Relative mutation frequency to 20 amol (GC to AT) (Library No. 10, PCR input DNA 78 amol): 99.59
Relative mutation frequency to 20 amol (GC to AT) (Library No. 11, PCR input DNA 39 amol): 99.20
Relative mutation frequency to 20 amol (GC to AT) (Library No. 12, PCR input DNA 20 amol (reference)): 100.00
Relative mutation frequency to 20 amol (GC to AT) (Library No. 13, PCR input DNA 10 amol): 99.16
Relative mutation frequency to 20 amol (GC to AT) (Library No. 14, PCR input DNA 5 amol): 94.00
